# Data reported in PMC3043358 (The Prostate, 2010).
# Biological target: DNMT1 (Homo sapiens, UniProt P26358)
# Type: biochemical
# Sequence of DNMT1 (P26358 whole entry): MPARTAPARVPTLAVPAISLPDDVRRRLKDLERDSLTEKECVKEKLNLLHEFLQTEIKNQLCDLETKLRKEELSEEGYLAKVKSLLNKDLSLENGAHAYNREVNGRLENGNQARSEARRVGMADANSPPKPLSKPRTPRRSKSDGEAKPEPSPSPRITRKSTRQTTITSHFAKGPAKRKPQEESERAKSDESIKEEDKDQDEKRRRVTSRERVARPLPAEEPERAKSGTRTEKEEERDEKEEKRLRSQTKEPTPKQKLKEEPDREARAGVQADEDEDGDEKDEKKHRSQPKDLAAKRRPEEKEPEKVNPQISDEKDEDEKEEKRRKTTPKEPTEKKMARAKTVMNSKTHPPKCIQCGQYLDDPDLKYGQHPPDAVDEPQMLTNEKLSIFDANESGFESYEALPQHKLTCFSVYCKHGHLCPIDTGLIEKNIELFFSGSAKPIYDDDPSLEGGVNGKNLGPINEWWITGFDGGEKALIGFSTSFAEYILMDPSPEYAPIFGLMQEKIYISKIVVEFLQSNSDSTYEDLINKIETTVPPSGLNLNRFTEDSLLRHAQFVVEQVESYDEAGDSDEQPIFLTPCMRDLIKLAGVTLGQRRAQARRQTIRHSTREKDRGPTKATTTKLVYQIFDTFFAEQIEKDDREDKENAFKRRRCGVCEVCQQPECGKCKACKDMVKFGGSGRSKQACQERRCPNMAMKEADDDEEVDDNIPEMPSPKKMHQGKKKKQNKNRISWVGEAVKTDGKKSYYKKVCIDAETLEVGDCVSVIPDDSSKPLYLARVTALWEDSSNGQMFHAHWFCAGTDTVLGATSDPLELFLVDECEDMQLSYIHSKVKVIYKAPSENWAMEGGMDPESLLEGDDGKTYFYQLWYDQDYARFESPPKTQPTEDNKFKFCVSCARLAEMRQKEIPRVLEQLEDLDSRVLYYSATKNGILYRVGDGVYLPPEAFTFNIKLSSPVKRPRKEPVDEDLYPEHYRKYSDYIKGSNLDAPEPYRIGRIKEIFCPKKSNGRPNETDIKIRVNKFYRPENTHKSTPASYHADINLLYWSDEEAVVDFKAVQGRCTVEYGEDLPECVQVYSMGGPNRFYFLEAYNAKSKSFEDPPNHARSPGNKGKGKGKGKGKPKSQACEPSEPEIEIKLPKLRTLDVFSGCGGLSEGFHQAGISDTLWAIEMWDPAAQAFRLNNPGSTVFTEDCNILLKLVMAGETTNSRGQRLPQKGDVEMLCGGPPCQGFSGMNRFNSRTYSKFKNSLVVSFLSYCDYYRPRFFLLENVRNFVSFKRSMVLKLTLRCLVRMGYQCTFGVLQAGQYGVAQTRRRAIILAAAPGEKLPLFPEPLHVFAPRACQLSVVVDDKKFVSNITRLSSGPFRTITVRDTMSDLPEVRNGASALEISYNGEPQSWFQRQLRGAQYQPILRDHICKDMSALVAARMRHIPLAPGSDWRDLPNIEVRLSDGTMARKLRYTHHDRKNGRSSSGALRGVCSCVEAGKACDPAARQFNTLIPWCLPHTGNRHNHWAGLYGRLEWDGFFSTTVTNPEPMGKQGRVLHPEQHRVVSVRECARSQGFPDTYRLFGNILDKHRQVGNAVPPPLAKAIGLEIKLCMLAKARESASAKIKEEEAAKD
smiles,measurement,value
"CCN(CC)C(=S)SSC(=S)N(CC)CC [DSF, Disulfiram]","in vitro methyltransferase assay, tritium incorporation from 3H-AdoMet into hemi",95% reduction of activity at 200
